Results from US8865623B2, “Herbicidally active cyclic diones and derivatives thereof, processes for their preparation, compositions, and method of controlling weeds” (Syngenta Limited, priority 2009, dated 2014).

What was measured:
Assay type in all cases: in vivo
[1] = test system: Alopecurus myosuroides (ALOMY); assay: Pre-emergence herbicidal activity, glasshouse pot test; conditions: Alopecurus myosuroides, 312 h; Rate 250 g/ha; pre-emergence spray; evaluated after 13 days; read-out: Pre-emergence activity ALOMY (100=total damage to plant; 0=no damage to plant)
Outline: (§1)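 Plants in standard-soil pots, glasshouse at 24/16° C, 14 h photoperiod, 65% humidity. Aqueous spray (acetone/water 50:50 formulation, 0.5% Tween 20) applied pre-emergence at day 1 or post-emergence at day 8. Percent damage recorded after 13 days.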

[2] = test system: Avena fatua (AVEFA); assay: as above; conditions: Avena fatua, 312 h; Rate 250 g/ha; pre-emergence spray; evaluated after 13 days; read-out: Pre-emergence activity AVEFA (100=total damage to plant; 0=no damage to plant)
Outline: as §1

[3] = test system: Echinochloa crus-galli (ECHCG); assay: as above; conditions: Echinochloa crus-galli, 312 h; Rate 250 g/ha; pre-emergence spray; evaluated after 13 days; read-out: Pre-emergence activity ECHCG (100=total damage to plant; 0=no damage to plant)
Outline: as §1

[4] = test system: Lolium perenne (LOLPE); assay: as above; conditions: Lolium perenne, 312 h; Rate 250 g/ha; pre-emergence spray; evaluated after 13 days; read-out: Pre-emergence activity LOLPE (100=total damage to plant; 0=no damage to plant)
Outline: as §1

[5] = test system: Alopecurus myosuroides (ALOMY); assay: Post-emergence herbicidal activity, glasshouse pot test; conditions: Alopecurus myosuroides, 312 h, rate 250 g/ha, evaluated after 13 days, glasshouse, read-out: Post-emergence activity ALOMY (100=total damage to plant; 0=no damage to plant)
Outline: as §1

[6] = test system: Avena fatua (AVEFA); assay: as above; conditions: Avena fatua, 312 h, rate 250 g/ha, evaluated after 13 days, glasshouse, read-out: Post-emergence activity AVEFA (100=total damage to plant; 0=no damage to plant)
Outline: as §1

[7] = test system: Echinochloa crus-galli (ECHCG); assay: as above; conditions: Echinochloa crus-galli, 312 h, rate 250 g/ha, evaluated after 13 days, glasshouse, read-out: Post-emergence activity ECHCG (100=total damage to plant; 0=no damage to plant)
Outline: as §1

[8] = test system: Lolium perenne (LOLPE); assay: as above; conditions: Lolium perenne, 312 h, rate 250 g/ha, evaluated after 13 days, glasshouse, read-out: Post-emergence activity LOLPE (100=total damage to plant; 0=no damage to plant)
Outline: as §1

CC1(C)OC(C)(C)C(O)=C(c2cc(Oc3ccc4cc(Cl)ccc4n3)ccc2C2CC2)C1=O [Example A-312]
pest or weed control at 250 g/ha [1]: 70% | pest or weed control at 250 g/ha [2]: 70% | pest or weed control at 250 g/ha [3]: 100% | pest or weed control at 250 g/ha [4]: 100% | pest or weed control at 250 g/ha [5]: 100% | pest or weed control at 250 g/ha [6]: 100% | pest or weed control at 250 g/ha [7]: 100% | pest or weed control at 250 g/ha [8]: 100%

CCc1ccc(Oc2ccc(C#N)c(Cl)c2)cc1C1=C(O)[C@@H]2CC[C@](C)(C1=O)C2(C)C [Example A-313]
pest or weed control at 250 g/ha [1]: 80% | pest or weed control at 250 g/ha [2]: 70% | pest or weed control at 250 g/ha [3]: 100% | pest or weed control at 250 g/ha [4]: 100% | pest or weed control at 250 g/ha [5]: 90% | pest or weed control at 250 g/ha [6]: 90% | pest or weed control at 250 g/ha [7]: 100% | pest or weed control at 250 g/ha [8]: 80%

CCc1ccc(Oc2ccc(C(F)(F)F)cc2Cl)cc1C1=C(O)[C@@H]2CC[C@](C)(C1=O)C2(C)C [Example A-314]
pest or weed control at 250 g/ha [1]: 30% | pest or weed control at 250 g/ha [2]: 20% | pest or weed control at 250 g/ha [3]: 100% | pest or weed control at 250 g/ha [4]: 100% | pest or weed control at 250 g/ha [5]: 40% | pest or weed control at 250 g/ha [6]: 70% | pest or weed control at 250 g/ha [7]: 100% | pest or weed control at 250 g/ha [8]: 70%

CCc1ccc(Oc2ccc(C(F)(F)F)c(Cl)c2)cc1C1=C(O)[C@@H]2CC[C@](C)(C1=O)C2(C)C [Example A-315]
pest or weed control at 250 g/ha [1]: 80% | pest or weed control at 250 g/ha [2]: 60% | pest or weed control at 250 g/ha [3]: 100% | pest or weed control at 250 g/ha [4]: 100% | pest or weed control at 250 g/ha [5]: 40% | pest or weed control at 250 g/ha [6]: 80% | pest or weed control at 250 g/ha [7]: 90% | pest or weed control at 250 g/ha [8]: 90%

CCc1ccc(Oc2ccc([N+](=O)[O-])c(Cl)c2)cc1C1=C(O)[C@@H]2CC[C@](C)(C1=O)C2(C)C [Example A-316]
pest or weed control at 250 g/ha [1]: 70% | pest or weed control at 250 g/ha [2]: 60% | pest or weed control at 250 g/ha [3]: 100% | pest or weed control at 250 g/ha [4]: 100% | pest or weed control at 250 g/ha [5]: 50% | pest or weed control at 250 g/ha [6]: 80% | pest or weed control at 250 g/ha [7]: 100% | pest or weed control at 250 g/ha [8]: 40%

CCc1ccc(Oc2ncc(C(F)(F)F)cc2Cl)cc1C1=C(O)[C@@H]2CC[C@](C)(C1=O)C2(C)C [Example A-317]
pest or weed control at 250 g/ha [1]: 100% | pest or weed control at 250 g/ha [2]: 100% | pest or weed control at 250 g/ha [3]: 100% | pest or weed control at 250 g/ha [4]: 100% | pest or weed control at 250 g/ha [5]: 100% | pest or weed control at 250 g/ha [6]: 100% | pest or weed control at 250 g/ha [7]: 100% | pest or weed control at 250 g/ha [8]: 100%

CCc1ccc(Oc2ncc(Cl)cc2Cl)cc1C1=C(O)[C@@H]2CC[C@](C)(C1=O)C2(C)C [Example A-318]
pest or weed control at 250 g/ha [1]: 90% | pest or weed control at 250 g/ha [2]: 90% | pest or weed control at 250 g/ha [3]: 100% | pest or weed control at 250 g/ha [4]: 100% | pest or weed control at 250 g/ha [5]: 90% | pest or weed control at 250 g/ha [6]: 90% | pest or weed control at 250 g/ha [7]: 100% | pest or weed control at 250 g/ha [8]: 100%

CCc1ccc(Oc2nc3ccccc3s2)cc1C1=C(O)[C@@H]2CC[C@](C)(C1=O)C2(C)C [Example A-319]
pest or weed control at 250 g/ha [1]: 90% | pest or weed control at 250 g/ha [2]: 70% | pest or weed control at 250 g/ha [3]: 100% | pest or weed control at 250 g/ha [4]: 100% | pest or weed control at 250 g/ha [5]: 100% | pest or weed control at 250 g/ha [6]: 100% | pest or weed control at 250 g/ha [7]: 100% | pest or weed control at 250 g/ha [8]: 100%

CCc1ccc(Oc2nc3ccc(Cl)cc3s2)cc1C1=C(O)[C@@H]2CC[C@](C)(C1=O)C2(C)C [Example A-320]
pest or weed control at 250 g/ha [1]: 80% | pest or weed control at 250 g/ha [2]: 80% | pest or weed control at 250 g/ha [3]: 100% | pest or weed control at 250 g/ha [4]: 100% | pest or weed control at 250 g/ha [5]: 100% | pest or weed control at 250 g/ha [6]: 100% | pest or weed control at 250 g/ha [7]: 100% | pest or weed control at 250 g/ha [8]: 90%

CCc1ccc(Oc2ccc3ccccc3n2)cc1C1=C(O)[C@@H]2CC[C@](C)(C1=O)C2(C)C [Example A-321]
pest or weed control at 250 g/ha [1]: 70% | pest or weed control at 250 g/ha [2]: 50% | pest or weed control at 250 g/ha [3]: 100% | pest or weed control at 250 g/ha [4]: 90% | pest or weed control at 250 g/ha [5]: 90% | pest or weed control at 250 g/ha [6]: 90% | pest or weed control at 250 g/ha [7]: 100% | pest or weed control at 250 g/ha [8]: 90%

CCc1ccc(Oc2nc3cc(Cl)ccc3s2)cc1C1=C(O)[C@@H]2CC[C@](C)(C1=O)C2(C)C [Example A-322]
pest or weed control at 250 g/ha [1]: 60% | pest or weed control at 250 g/ha [2]: 40% | pest or weed control at 250 g/ha [3]: 100% | pest or weed control at 250 g/ha [4]: 100% | pest or weed control at 250 g/ha [5]: 90% | pest or weed control at 250 g/ha [6]: 80% | pest or weed control at 250 g/ha [7]: 100% | pest or weed control at 250 g/ha [8]: 90%

CCc1ccc(Oc2ccc(C(F)(F)F)c(C#N)c2)cc1C1=C(O)[C@@H]2CC[C@](C)(C1=O)C2(C)C [Example A-323]
pest or weed control at 250 g/ha [1]: 70% | pest or weed control at 250 g/ha [2]: 80% | pest or weed control at 250 g/ha [3]: 100% | pest or weed control at 250 g/ha [4]: 100% | pest or weed control at 250 g/ha [5]: 60% | pest or weed control at 250 g/ha [6]: 80% | pest or weed control at 250 g/ha [7]: 90% | pest or weed control at 250 g/ha [8]: 70%

CCc1ccc(Oc2ncc(C(F)(F)F)cc2C(F)(F)F)cc1C1=C(O)[C@@H]2CC[C@](C)(C1=O)C2(C)C [Example A-324]
pest or weed control at 250 g/ha [1]: 90% | pest or weed control at 250 g/ha [2]: 90% | pest or weed control at 250 g/ha [3]: 100% | pest or weed control at 250 g/ha [4]: 100% | pest or weed control at 250 g/ha [5]: 100% | pest or weed control at 250 g/ha [6]: 100% | pest or weed control at 250 g/ha [7]: 100% | pest or weed control at 250 g/ha [8]: 100%

CCc1ccc(Oc2nc3ccc([N+](=O)[O-])cc3s2)cc1C1=C(O)[C@@H]2CC[C@](C)(C1=O)C2(C)C [Example A-325]
pest or weed control at 250 g/ha [1]: 60% | pest or weed control at 250 g/ha [2]: 20% | pest or weed control at 250 g/ha [3]: 100% | pest or weed control at 250 g/ha [4]: 90% | pest or weed control at 250 g/ha [5]: 50% | pest or weed control at 250 g/ha [6]: 30% | pest or weed control at 250 g/ha [7]: 100% | pest or weed control at 250 g/ha [8]: 40%

CCc1ccc(Oc2nc3ccc(OC)cc3s2)cc1C1=C(O)[C@@H]2CC[C@](C)(C1=O)C2(C)C [Example A-326]
pest or weed control at 250 g/ha [1]: 30% | pest or weed control at 250 g/ha [2]: 10% | pest or weed control at 250 g/ha [3]: 70% | pest or weed control at 250 g/ha [4]: 90% | pest or weed control at 250 g/ha [5]: 30% | pest or weed control at 250 g/ha [6]: 90% | pest or weed control at 250 g/ha [7]: 100% | pest or weed control at 250 g/ha [8]: 90%

CCc1ccc(Oc2ccc(C(F)(F)F)cc2[N+](=O)[O-])cc1C1=C(O)[C@@H]2CC[C@](C)(C1=O)C2(C)C [Example A-327]
pest or weed control at 250 g/ha [1]: 70% | pest or weed control at 250 g/ha [2]: 20% | pest or weed control at 250 g/ha [3]: 100% | pest or weed control at 250 g/ha [4]: 90% | pest or weed control at 250 g/ha [5]: 80% | pest or weed control at 250 g/ha [6]: 90% | pest or weed control at 250 g/ha [7]: 100% | pest or weed control at 250 g/ha [8]: 70%

CCc1ccc(Oc2nc3c(Cl)cc(Cl)cc3s2)cc1C1=C(O)[C@@H]2CC[C@](C)(C1=O)C2(C)C [Example A-328]
pest or weed control at 250 g/ha [1]: 50% | pest or weed control at 250 g/ha [2]: 30% | pest or weed control at 250 g/ha [3]: 100% | pest or weed control at 250 g/ha [4]: 90% | pest or weed control at 250 g/ha [5]: 60% | pest or weed control at 250 g/ha [6]: 80% | pest or weed control at 250 g/ha [7]: 100% | pest or weed control at 250 g/ha [8]: 70%
